Results on eleven molecules are retold here after PMC9948161 (ACS Omega, 2023).

The structures appear in SMILES notation.

One experiment deals with VEGFR2 kinase (Homo sapiens, UniProt P35968). Nature of the experiment: biochemical.
The test system of experiment [1] is MCF-7 breast cancer cell line. Nature of the experiment: MTT in vitro antiproliferative assay. The settings on record: Homo sapiens, MCF7, 24 h, read-out: IC50 on the human MCF-7 cell line. It counts as cell-based.
In experiment [2] the test system is human red blood cell (HRBC) membrane. Nature of the experiment: HRBC membrane stabilization assay. The settings on record: Erythrocyte, read-out: percentage of inhibition of hemolysis (HRBC membrane stabilization). It counts as cell-based.
The subject of experiment [3] is MCF-7 cells. Nature of the experiment: Cell cycle analysis by propidium iodide flow cytometry. Type of experiment: cell-based, human. The settings on record: MCF-7, 1.29 μM, 24 h; untreated control 2.4.
The test system of experiment [4] is MCF-7 cells. Nature of the experiment: Wound healing. Type of experiment: cell-based, human. The settings on record: MCF-7, IC50 concentration.

Chain of VEGFR2 kinase (P35968 20-1356): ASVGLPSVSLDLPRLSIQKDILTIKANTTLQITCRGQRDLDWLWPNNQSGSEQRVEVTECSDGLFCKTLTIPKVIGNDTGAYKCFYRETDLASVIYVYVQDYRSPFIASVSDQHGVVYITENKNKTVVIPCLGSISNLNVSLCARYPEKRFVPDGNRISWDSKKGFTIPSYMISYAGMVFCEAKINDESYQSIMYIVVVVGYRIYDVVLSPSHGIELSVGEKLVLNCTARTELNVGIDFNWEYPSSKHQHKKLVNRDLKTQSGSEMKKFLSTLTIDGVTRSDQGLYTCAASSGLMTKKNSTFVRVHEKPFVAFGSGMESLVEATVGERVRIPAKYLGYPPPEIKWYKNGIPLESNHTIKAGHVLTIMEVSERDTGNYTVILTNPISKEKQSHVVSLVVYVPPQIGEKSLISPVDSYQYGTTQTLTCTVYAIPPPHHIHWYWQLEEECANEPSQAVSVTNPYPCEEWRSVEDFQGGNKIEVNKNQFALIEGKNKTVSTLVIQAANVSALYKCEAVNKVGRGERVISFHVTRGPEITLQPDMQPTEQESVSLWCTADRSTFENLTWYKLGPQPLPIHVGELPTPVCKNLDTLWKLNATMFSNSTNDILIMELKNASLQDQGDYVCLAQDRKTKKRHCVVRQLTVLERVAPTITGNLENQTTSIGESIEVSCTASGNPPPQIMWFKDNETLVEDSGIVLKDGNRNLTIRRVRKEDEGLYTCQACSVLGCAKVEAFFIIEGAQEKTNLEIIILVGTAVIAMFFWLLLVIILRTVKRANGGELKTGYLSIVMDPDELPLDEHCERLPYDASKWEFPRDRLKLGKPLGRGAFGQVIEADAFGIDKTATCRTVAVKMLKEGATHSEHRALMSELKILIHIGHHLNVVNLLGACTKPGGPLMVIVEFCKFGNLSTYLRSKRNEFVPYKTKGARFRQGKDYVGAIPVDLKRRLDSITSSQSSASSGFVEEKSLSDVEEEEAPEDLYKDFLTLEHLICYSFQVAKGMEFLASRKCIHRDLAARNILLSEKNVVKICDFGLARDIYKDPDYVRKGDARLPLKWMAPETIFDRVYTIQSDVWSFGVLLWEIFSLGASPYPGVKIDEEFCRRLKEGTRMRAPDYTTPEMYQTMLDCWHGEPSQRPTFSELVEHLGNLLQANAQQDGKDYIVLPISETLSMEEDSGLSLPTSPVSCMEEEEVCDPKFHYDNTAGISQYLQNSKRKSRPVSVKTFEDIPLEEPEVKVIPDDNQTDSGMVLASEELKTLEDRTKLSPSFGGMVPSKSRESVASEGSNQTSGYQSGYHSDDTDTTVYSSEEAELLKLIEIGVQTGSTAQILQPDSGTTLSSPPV

With `CCOC(=O)CN1C(=O)C(CC(=O)c2ccc(F)c(F)c2)Sc2ccccc21` (stereo not shown) [Compound 3b, Ethyl 2-(2-(2-(3,4-Difluorophenyl)-2-oxoethyl)-3-oxo-2H-benzo [b][1,4]thiazin-4 (3H)-yl)acetate], the IC50 worked out at 236 nM against VEGFR2 kinase and 4500 nM in experiment [1].

In the case of `CCOC(=O)CN1C(=O)C(CC(=O)c2ccc(Cl)cc2)Sc2ccccc21` (stereo not shown) [Compound 3c, Ethyl 2-(2-(2-(4-Chlorophenyl)-2-oxoethyl)-3-oxo-2H-benzo[b][1,4]thiazin-4(3H)-yl)acetate], in experiment [1], the IC50 was 4390 nM. In addition, in experiment [2], the inhibition at 125 µg/mL turned out to be 27.4% and the inhibition at 500 µg/mL stood at 53.6%.

On to `CCOC(=O)CN1C(=O)C(CC(=O)c2ccc(Br)cc2)Sc2ccccc21` (stereo not shown) [Compound 3d, Ethyl 2-(2-(2-(4-Bromophenyl)-2-oxoethyl)-3-oxo-2H-benzo[b][1,4]thiazin-4(3H)-yl)acetate], for which the IC50 in experiment [1] came out at 3310 nM.

Regarding `CCOC(=O)CN1C(=O)C(CC(=O)c2ccc(F)cc2)Sc2ccccc21` (stereo not shown) [Compound 3a, Ethyl 2-(2-(2-(4-Fluorophenyl)-2-oxoethyl)-3-oxo-2H-benzo[b][1,4]thiazin-4(3H)-yl)acetate], the values for the 50% inhibitory concentration (IC50) (against VEGFR2 kinase; in experiment [1]) were 632 nM and 5190 nM, respectively.

For `O=c1[nH]cc(F)c(=O)[nH]1` [5-fluorouracil, reference compound], in experiment [1], the IC50 turned out to be 7790 nM.

Consider `O=C(CC1Sc2ccccc2NC1=O)c1ccc(Br)cc1` (stereo not shown) [Compound 2d, 2-(2-(4-Bromophenyl)-2-oxoethyl)-2H-benzo[b][1,4]thiazin-3(4H)-one], for which the concentration for half-maximal inhibition (IC50) in experiment [1] stood at 2300 nM.

For the molecule `Cc1ccc(C(=O)CC2Sc3ccccc3NC2=O)cc1Cl` (stereo not shown) [Compound 2f, 2-(2-(3-Chloro-4-methylphenyl)-2-oxoethyl)-2H-benzo[b][1,4]thiazin-3(4H)-one], the IC50 against VEGFR2 kinase amounted to 97.2 nM; in experiment [1], 3700 nM.

`O=C(CC1Sc2ccccc2NC1=O)c1ccc(Cl)c(Cl)c1` (stereo not shown) [Compound 2e, 2-(2-(3,4-Dichlorophenyl)-2-oxoethyl)-2H-benzo[b][1,4]thiazin-3(4H)-one]: the half-inhibitory concentration (IC50) against VEGFR2 kinase is 135 nM; in experiment [1], 4980 nM.

Regarding `O=C(CC1Sc2ccccc2NC1=O)c1ccc(F)cc1` (stereo not shown) [Compound 2a, 2-(2-(4-Fluorophenyl)-2-oxoethyl)-2H-benzo[b][1,4]thiazin-3(4H)-one], the values for the IC50 (against VEGFR2 kinase; in experiment [1]) were 74.1 nM and 2260 nM, respectively.

Turning to `O=C(CC1Sc2ccccc2NC1=O)c1ccc(Cl)cc1` (stereo not shown) [Compound 2c, 2-(2-(4-Chlorophenyl)-2-oxoethyl)-2H-benzo[b] [1, 4]thiazin-3(4H)-one], the “population of cells at G2/M phase” value in the experiment with MCF-7 cells [3] was determined as 1%. Besides, the “wound healing percentage (percentage wound healing area) at 0 h” value with MCF-7 cells [4] (0 h, control 66.42 ± 1.20) came to 66.63 ± 0.66%. For the same molecule, the “reduction in the area of the wound (percentage wound healing area) after 24 h” value in the experiment on MCF-7 cells [4] (24 h, control 43.23 ± 1.71) worked out at 61.98 ± 1.44%. The IC50 in experiment [1] amounted to 1290 nM. Besides, in experiment [2], the inhibition at 125 µg/mL came to 31.6%, the inhibition at 250 µg/mL amounted to 49.8% and the inhibition at 500 µg/mL worked out at 75.4%.

For the molecule `O=C(CC1Sc2ccccc2NC1=O)c1ccc(F)c(F)c1` (stereo not shown) [Compound 2b, 2-(2-(3,4-Difluorophenyl)-2-oxoethyl)-2H-benzo[b][1,4]thiazin-3(4H)-one], the IC50 against VEGFR2 kinase came out at 59.3 nM; in experiment [1], 1370 nM.
